Data on 15 molecules can be found in PubChem BioAssay AID220 (DTP/NCI, 2004).

The subject of this experiment is CD8F1 mice, subcutaneous mammary adenocarcinoma, T/C%. Nature of the experiment: NCI In Vivo Anticancer Drug Screen. Data for tumor model Mammary Adenocarcinoma CD8F1 (subcutaneous) in CD8F1. The note with it: higher = larger tumour. The method in brief: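 Mice carrying transplanted tumors received test compound, and survival or tumor size was recorded. Each value is the treated-group measurement divided by the corresponding measurement in vehicle-dosed controls.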

Where [1] appears, read: endpoint: median tumor weight change, dose: 125.0 mg/kg/injection, schedule: Q01DX001 (ip), vehicle: suspension in saline.
Setting [2] is: endpoint: median tumor weight change, dose: 250.0 mg/kg/injection, schedule: Q01DX001 (ip), vehicle: suspension in saline.
The mark [3] stands for this setting: endpoint: median tumor weight (est.), dose: 6.25 mg/kg/injection, schedule: Q07DX005 (ip), vehicle: saline.
[4] abbreviates: endpoint: median tumor weight (est.), dose: 12.5 mg/kg/injection, schedule: Q07DX005 (ip), vehicle: Klucel (hydroxypropylcellulose) (HPC).
[5] abbreviates: endpoint: median tumor weight (est.), dose: 25.0 mg/kg/injection, schedule: Q07DX005 (ip), vehicle: Klucel (hydroxypropylcellulose) (HPC).
[6] abbreviates: endpoint: median tumor weight (est.), dose: 50.0 mg/kg/injection, schedule: Q07DX005 (ip), vehicle: Klucel (hydroxypropylcellulose) (HPC).
The mark [7] stands for this setting: endpoint: median tumor weight (est.), dose: 200.0 mg/kg/injection, schedule: Q07DX005 (ip), vehicle: Klucel (hydroxypropylcellulose) (HPC).
[8] abbreviates: endpoint: median tumor weight (est.), dose: 400.0 mg/kg/injection, schedule: Q07DX005 (ip), vehicle: Klucel (hydroxypropylcellulose) (HPC).

Where “and” joins values, the source holds several entries; their conditions need not be identical. Identical values can stand only once. Records with an inconclusive call do not appear.

`Nc1nc([Se])c2ncn(C3OC(CO)C(O)C3O)c2n1` (stereo unspecified): the T/C (endpoint: median tumor weight (est.), dose: 2.0 mg/kg/injection, schedule: Q07DX005 (ip), vehicle: saline) was 92 % of control; the T/C (endpoint: median tumor weight (est.), dose: 4.0 mg/kg/injection, schedule: Q07DX005 (ip), vehicle: saline) is 54 % of control; the T/C (endpoint: median tumor weight (est.), dose: 8.0 mg/kg/injection, schedule: Q07DX005 (ip), vehicle: saline) was 68 % of control; the T/C (endpoint: median tumor weight (est.), dose: 8.0 mg/kg/injection, schedule: Q07DX005 (ip), vehicle: suspension in saline) is 24 % of control; the T/C (endpoint: median tumor weight (est.), dose: 16.0 mg/kg/injection, schedule: Q07DX005 (ip), vehicle: saline) is 70 % of control; the T/C (endpoint: median tumor weight (est.), dose: 16.0 mg/kg/injection, schedule: Q07DX005 (ip), vehicle: suspension in saline) was 20 % of control. Moreover, the T/C (endpoint: median tumor weight (est.), dose: 32.0 mg/kg/injection, schedule: Q07DX005 (ip), vehicle: saline) was 30 % of control; the T/C (endpoint: median tumor weight (est.), dose: 32.0 mg/kg/injection, schedule: Q07DX005 (ip), vehicle: suspension in saline) is 51 % of control; the T/C (endpoint: median tumor weight (est.), dose: 64.0 mg/kg/injection, schedule: Q07DX005 (ip), vehicle: saline) is 27 % of control; the T/C (endpoint: median tumor weight (est.), dose: 64.0 mg/kg/injection, schedule: Q07DX005 (ip), vehicle: suspension in saline) was 12 % of control.

For `COC1C(O)CC(OC2C(C)OC(Oc3cc(O)c4c(O)c5c(cc4c3)C[C@@H]([C@H](OC)C(=O)[C@@H](O)[C@@H](C)O)[C@H](OC3CC(OC4CC(OC6CC(C)(O)C(O)C(C)O6)C(O)C(C)O4)C(O)C(C)O3)C5=O)CC2OC(C)=O)OC1C` (stereo partly specified), the T/C is 207 % of control (endpoint: median tumor weight (est.), dose: 18.75 mg/kg/injection, schedule: Q07DX005 (ip), vehicle: suspension in saline); 66 % of control (endpoint: median tumor weight (est.), dose: 75.0 mg/kg/injection, schedule: Q07DX005 (ip), vehicle: suspension in saline); 111 % of control (endpoint: median tumor weight (est.), dose: 150.0 mg/kg/injection, schedule: Q07DX005 (ip), vehicle: suspension in saline); 123 % of control (endpoint: median tumor weight (est.), dose: 300.0 mg/kg/injection, schedule: Q07DX005 (ip), vehicle: suspension in saline).

As to `O=C(/C=C(\Cl)C(=O)NO)NO`, the T/C is 111 % of control (endpoint: median tumor weight change, dose: 62.5 mg/kg/injection, schedule: Q01DX001 (ip), vehicle: suspension in saline); 79 % of control under setting [1]; 83 % of control under setting [2].

`C[n+]1c(/C=N/NC(N)=S)ccc2ccccc21`: the T/C by setting is: (endpoint: median tumor weight change, dose: 62.5 mg/kg/injection, schedule: Q01DX001 (ip), vehicle: saline with Tween-80) 108 % of control; (endpoint: median tumor weight change, dose: 125.0 mg/kg/injection, schedule: Q01DX001 (ip), vehicle: saline with Tween-80) 181 % of control; (endpoint: median tumor weight change, dose: 250.0 mg/kg/injection, schedule: Q01DX001 (ip), vehicle: saline with Tween-80) 77 % of control.

As to `CC[C@]1(O)C[C@H]2CN(CCc3c([nH]c4ccccc34)[C@@](C(=O)OC)(c3cc4c(cc3OC)N(C)[C@H]3[C@@](O)(C(=O)OC)[C@H](OC(C)=O)[C@]5(CC)C=CCN6CC[C@]43[C@@H]65)C2)C1`, the T/C was 70 % of control and 71 % of control (endpoint: median tumor weight (est.), dose: 0.25 mg/kg/injection, schedule: Q07DX005 (ip), vehicle: saline); 63 % of control and 83 % of control and 84 % of control (endpoint: median tumor weight (est.), dose: 0.5 mg/kg/injection, schedule: Q07DX005 (ip), vehicle: saline); 81 % of control (endpoint: median tumor weight change, dose: 1.0 mg/kg/injection, schedule: Q01DX001 (ip), vehicle: saline); 56 % of control (endpoint: median tumor weight change, dose: 2.0 mg/kg/injection, schedule: Q01DX001 (ip), vehicle: saline); 28 % of control (endpoint: median tumor weight change, dose: 4.0 mg/kg/injection, schedule: Q01DX001 (ip), vehicle: saline).

In the case of `C[n+]1c(-c2cccc3ccccc23)c2cc(N)ccc2c2ccccc21`, the T/C is, setting by setting: (endpoint: median tumor weight (est.), dose: 3.12 mg/kg/injection, schedule: Q07DX005 (ip), vehicle: saline) 71 % of control; under setting [3], 99 % of control; (endpoint: median tumor weight (est.), dose: 12.5 mg/kg/injection, schedule: Q07DX005 (ip), vehicle: saline) 49 % of control.

In the case of `COC1C(CO)OC(n2cnc3c(=S)nc(N)[nH]c32)C1O` (stereo unspecified), the T/C was 109 % of control under setting [4]; 116 % of control under setting [5]; 112 % of control under setting [6]; 79 % of control (endpoint: median tumor weight (est.), dose: 100.0 mg/kg/injection, schedule: Q07DX005 (ip), vehicle: Klucel (hydroxypropylcellulose) (HPC)); 28 % of control under setting [7]; 22 % of control under setting [8].

`Cc1ccc2nc(-c3ccc4nc(-c5ccc(N=Nc6ccc(-c7nc8ccc(-c9nc%10ccc(C)c(S(=O)(=O)O)c%10s9)cc8s7)cc6)cc5)sc4c3)sc2c1S(=O)(=O)O`: the T/C runs as follows: under setting [1], 94 % of control; under setting [2], 62 % of control.

Consider `[N-]=[N+]=[N-]`, for which the T/C was 72 % of control (endpoint: median tumor weight change, dose: 3.0 mg/kg/injection, schedule: Q01DX001 (ip), vehicle: saline); 104 % of control (endpoint: median tumor weight change, dose: 6.0 mg/kg/injection, schedule: Q01DX001 (ip), vehicle: saline); 122 % of control (endpoint: median tumor weight change, dose: 12.0 mg/kg/injection, schedule: Q01DX001 (ip), vehicle: saline); 66 % of control (endpoint: median tumor weight change, dose: 24.0 mg/kg/injection, schedule: Q01DX001 (ip), vehicle: saline).

For the molecule `Cc1ccccc1N(CC1CO1)CC1CO1` (stereo unspecified), the T/C runs as follows: (endpoint: median tumor weight (est.), dose: 50.0 mg/kg/injection, schedule: Q07DX005 (ip), vehicle: saline) 74 % of control; (endpoint: median tumor weight (est.), dose: 100.0 mg/kg/injection, schedule: Q07DX005 (ip), vehicle: saline) 79 % of control; (endpoint: median tumor weight (est.), dose: 200.0 mg/kg/injection, schedule: Q07DX005 (ip), vehicle: saline) 105 % of control; (endpoint: median tumor weight (est.), dose: 400.0 mg/kg/injection, schedule: Q07DX005 (ip), vehicle: saline) 63 % of control.

With `Cc1cc(C)c(-c2cc(O)c(C)cc2O)c(C)c1`, the T/C runs as follows: under setting [4], 56 % of control; under setting [5], 150 % of control and 267 % of control; under setting [6], 81 % of control; under setting [7], 71 % of control; under setting [8], 28 % of control.

On to `CCS/C(SC)=C(/c1ccccc1)[P+](c1ccccc1)(c1ccccc1)c1ccccc1`, for which the T/C (endpoint: median tumor weight change, dose: 0.5 mg/kg/injection, schedule: Q01DX001 (ip), vehicle: Klucel (hydroxypropylcellulose) (HPC)) was 159 % of control; the T/C (endpoint: median tumor weight change, dose: 1.0 mg/kg/injection, schedule: Q01DX001 (ip), vehicle: Klucel (hydroxypropylcellulose) (HPC)) was 100 % of control; the T/C (endpoint: median tumor weight change, dose: 2.0 mg/kg/injection, schedule: Q01DX001 (ip), vehicle: Klucel (hydroxypropylcellulose) (HPC)) was 114 % of control; the T/C (endpoint: median tumor weight change, dose: 4.0 mg/kg/injection, schedule: Q01DX001 (ip), vehicle: Klucel (hydroxypropylcellulose) (HPC)) was 81 % of control; the T/C (endpoint: median tumor weight change, dose: 8.0 mg/kg/injection, schedule: Q01DX001 (ip), vehicle: Klucel (hydroxypropylcellulose) (HPC)) was 43 % of control.

`O=C1C=C(C2OC(CO)C(O)C2O)C(=O)N1` (stereo unspecified): the T/C is, setting by setting: (endpoint: median tumor weight (est.), dose: 1.56 mg/kg/injection, schedule: Q07DX005 (ip), vehicle: saline) 73 % of control; under setting [3], 114 % of control.

Turning to `N=[N+]=CC(=O)CCC(NC(=O)C(CCC(=O)C=[N+]=N)NC(=O)CCC(N)C(=O)O)C(=O)O` (stereo unspecified), the T/C runs as follows: (endpoint: median tumor weight (est.), dose: 3.12 mg/kg/injection, schedule: Q07DX004 (ip), vehicle: clinical formulation) 34 % of control; (endpoint: median tumor weight (est.), dose: 6.25 mg/kg/injection, schedule: Q07DX004 (ip), vehicle: clinical formulation) 123 % of control; (endpoint: median tumor weight (est.), dose: 12.5 mg/kg/injection, schedule: Q07DX004 (ip), vehicle: clinical formulation) 50 % of control; (endpoint: median tumor weight (est.), dose: 25.0 mg/kg/injection, schedule: Q07DX004 (ip), vehicle: clinical formulation) 22 % of control; (endpoint: median tumor weight (est.), dose: 50.0 mg/kg/injection, schedule: Q07DX004 (ip), vehicle: clinical formulation) 15 % of control; (endpoint: median tumor weight (est.), dose: 100.0 mg/kg/injection, schedule: Q07DX004 (ip), vehicle: clinical formulation) 12 % of control.

For the molecule `C[C@]12C=CC(=O)C=C1CC[C@@H]1[C@@H]2[C@@H](O)C[C@@]2(C)[C@H]1CC[C@]2(O)C(=O)CO`, the T/C (endpoint: median tumor weight change, dose: 100.0 mg/kg/injection, schedule: Q01DX001 (ip), vehicle: Klucel (hydroxypropylcellulose) (HPC)) was 111 % of control; the T/C (endpoint: median tumor weight change, dose: 200.0 mg/kg/injection, schedule: Q01DX001 (ip), vehicle: Klucel (hydroxypropylcellulose) (HPC)) is 67 % of control and 87 % of control and 90 % of control; the T/C (endpoint: median tumor weight change, dose: 800.0 mg/kg/injection, schedule: Q01DX001 (ip), vehicle: Klucel (hydroxypropylcellulose) (HPC)) is 32 % of control and 38 % of control and 52 % of control; the T/C (endpoint: median tumor weight change, dose: 1600.0 mg/kg/injection, schedule: Q01DX001 (ip), vehicle: Klucel (hydroxypropylcellulose) (HPC)) is 14 % of control.
